One block for each molecule: values may come before it.
Experiments:
CCKBR = target: T1, CCKBR (Homo sapiens, UniProt P32239); assay: NanoBRET screen HiBiT-CCKBR in HEK293; format: binding
T1 construct: purchased Promega (in-house HiBiT-GPCR construct library, NanoBRET)
T1 sequence (P32239 1-447): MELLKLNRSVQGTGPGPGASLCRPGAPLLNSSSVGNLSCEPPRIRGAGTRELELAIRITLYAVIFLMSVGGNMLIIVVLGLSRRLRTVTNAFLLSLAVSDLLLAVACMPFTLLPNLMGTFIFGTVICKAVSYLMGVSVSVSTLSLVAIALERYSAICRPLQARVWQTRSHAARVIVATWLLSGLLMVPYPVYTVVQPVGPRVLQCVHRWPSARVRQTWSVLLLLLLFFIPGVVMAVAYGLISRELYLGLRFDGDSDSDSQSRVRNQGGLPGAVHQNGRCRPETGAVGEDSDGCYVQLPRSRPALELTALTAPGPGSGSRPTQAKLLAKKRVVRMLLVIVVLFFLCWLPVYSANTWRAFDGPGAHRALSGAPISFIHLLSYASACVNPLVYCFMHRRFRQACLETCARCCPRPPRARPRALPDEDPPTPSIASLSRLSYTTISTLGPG
Procedure: (§1) Each tracer candidate was screened across the entire library of HiBiT-GPCR constructs using NanoBRET as the detection modality. As depicted in Figure 4A, the specificity of interactions was evaluated through decrease in BRET due to competitive displacement of a bound tracer by excess parental compound. Each tracer was analyzed for binding to each HiBiT-GPCR fusion in the absence and in the presence of competing parental compound. Briefly, HEK293 cells were transfected with HiBiT-GPCR constructs diluted into promoterless DNA to reduce expression and maximize translocation to the cell surface. Each tracer candidate was then screened at concentrations of 1 μM and 0.1 μM across cells expressing these fusions. Cells were treated for 1.5 h with tracer either alone or in the presence of 20 μM competing parental compound (i.e., control). BRET was measured upon addition of purified LgBiT and subsequent complementation with HiBiT genetically fused to a GPCR. The specificity of interactions was assessed through a decrease in BRET signal due to competitive displacement of the bound tracer. To further gauge the robustness of these interactions, the fold response over the control (i.e., BRETtracer/BRETcontrol) was calculated. We chose a 1.5-fold response, which translates to ≥7-fold signal over noise as the minimal threshold required to score an interaction as positive. […]. Below we highlight the screening results obtained for our exemplary fluorescent tracers based on Clozapine, Amitriptyline and AZD1283.
(§2) HiBiT-GPCR DNA constructs were diluted in 10 mM Tris pH 8 to a final concentration of 0.01 μg/μL, arrayed in 96-well plates and stored at −20 °C. For transfection, HEK293 cells were suspended in Opti-MEM (without phenol red) supplemented with 2% fetal bovine serum (Seradigm) and 100 units/mL penicillin–streptomycin (Gibco) at a final concentration of 220,000 cells/mL and dispensed into white 96-well plates at 90 μL/well. Subsequent transfections and screens were carried using an Agilent Bravo Automated Liquid Handling Platform. First, the 96-well HiBiT DNA arrays were diluted 25-fold in Opti-MEM (without serum or phenol red) to a final concentration of 0.0004 μg/μL and 20 μL of the diluted DNAs were transferred into new 96-well plates. Next, promoterless carrier DNA (1 μg/μL) was diluted 25-fold (0.04 μg/μL) and then dispensed into the diluted arrays at 20 μL/well. Following brief mixing, Viafect transfection reagent (Promega) diluted 16-fold into Opti-MEM was dispensed into the plates at 40 μL/well. After mixing by pipetting, plates were incubated for 10 min on the pipetting station deck. The DNA-transfection reagent complexes were then added to plates containing cells. To facilitate the screen, 10 μL of DNA-transfection reagent complexes were added in duplicates to the top 4 and bottom 4 rows, resulting in two identical 48-well arrays per plate. Plates with transfected cells were incubated for 18–20 h at 37 °C/5% CO2. A screen of each tracer across the entire library using two different concentrations requires duplicate plates of transfected cells. Depending on the number of tracers being screened, transfections can be scaled up using the same ratios. The next day, for each tracer, four 20× screening solutions in tracer dilution buffer (Promega) were prepared: two duplicates at final concentration of 20 μM and two duplicates at a final concentration of 2 μM. A competing unmodified compound was added to one of each duplicate at a final concentration of 400 μM. The four resulting solutions were diluted 4-fold in Opti-MEM without serum or phenol red to generate 5× solutions (5 µM and 0.5 µM tracer +/− 100 μM competing compound). To screen the library, a BioTek MultiFlo FX liquid dispenser was used to dispense 22.5 µL of tracer solution to the top 4 rows and 22.5 µL tracer + competing compound solution to the 4 bottom rows. Plates were briefly mixed on an orbital shaker and incubated for 1.5 h at room temperature. […]

CCR1 = target: T2, CCR1 (Homo sapiens, UniProt P32246); assay: NanoBRET screen HiBiT-CCR1 in HEK293; format: binding
T2 construct: purchased Promega (in-house HiBiT-GPCR construct library, NanoBRET)
T2 sequence (P32246 1-355): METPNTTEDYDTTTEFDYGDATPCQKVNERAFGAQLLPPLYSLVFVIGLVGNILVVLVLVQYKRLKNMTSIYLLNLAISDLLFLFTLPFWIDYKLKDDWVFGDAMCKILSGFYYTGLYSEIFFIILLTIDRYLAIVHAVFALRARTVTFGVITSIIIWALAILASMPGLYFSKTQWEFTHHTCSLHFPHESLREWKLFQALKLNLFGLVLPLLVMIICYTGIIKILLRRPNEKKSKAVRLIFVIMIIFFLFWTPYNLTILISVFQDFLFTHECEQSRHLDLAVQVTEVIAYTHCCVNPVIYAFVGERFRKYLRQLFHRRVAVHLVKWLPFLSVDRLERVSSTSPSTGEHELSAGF
Procedure: as §1, §2

[1] = tracer at 0.1μM, listed as amitriptyline-b-2-NB590

NanoBRET Fold Response (CCKBR; CCKBR, 0.1μM): 1.18
NanoBRET Fold Response (CCKBR; CCKBR, 1μM): 1.10
NanoBRET Fold Response (CCR1; CCR1, 0.1μM): 1.05
NanoBRET Fold Response (CCR1; CCR1, 1μM): 1.03
SMILES: CCOC(=O)c1cc(C#N)c(N2CCC(C(=O)NS(=O)(=O)Cc3ccccc3/C=C/C(=O)NCCNC(=O)CCc3ccc4n3[B-](F)(F)[N+]3=C(c5ccc[nH]5)C=CC3=C4)CC2)nc1C [AZD1283-1-NB590]

NanoBRET Fold Response (CCKBR; CCKBR, tracer 0.1μM): 1.17
NanoBRET Fold Response (CCKBR; CCKBR, tracer 1μM): 1.04
NanoBRET Fold Response (CCR1; CCR1, tracer 0.1μM): 0.95
NanoBRET Fold Response (CCR1; CCR1, tracer 1μM): 1.03
SMILES: N#CN=C(NCCCOc1cccc(CN2CCCCC2)c1)NCCNC(=O)CCOCCOCCOCCOCCNC(=O)CCc1ccc2n1[B-](F)(F)[N+]1=C(c3ccc[nH]3)C=CC1=C2 [Aminopotentidine-2-NB590]

SMILES: CN(C)CCC=C1c2ccccc2CCc2ccc(C(=O)NCCNC(=O)CCOCCOCCOCCOCCNC(=O)CCc3ccc4n3[B-](F)(F)[N+]3=C(c5ccc[nH]5)C=CC3=C4)cc21 [Amitriptyline-a-2-NB590]
NanoBRET Fold Response (CCKBR; tracer at 0.1μM): 1.02
NanoBRET Fold Response (CCKBR; tracer at 1μM): 0.98
NanoBRET Fold Response (CCR1; tracer at 0.1μM): 0.99
NanoBRET Fold Response (CCR1; tracer at 1μM): 1.07

SMILES: CN(C)CCC=C1c2ccccc2CCc2ccc(C(=O)NCCNC(=O)CCOCCOCCOCCOCCNC(=O)CCc3ccc4n3[B-](F)(F)[N+]3=C(c5ccc[nH]5)C=CC3=C4)cc21 [Amitriptyline-b-2-NB590]
NanoBRET Fold Response (CCKBR; [1]): 1.10
NanoBRET Fold Response (CCKBR; tracer at 1μM, listed as amitriptyline-b-2-NB590): 1.09
NanoBRET Fold Response (CCR1; [1]): 0.84
NanoBRET Fold Response (CCR1; tracer at 1μM): 0.97

SMILES: CN(CCC=C1c2ccccc2CCc2ccccc21)C(=O)CCOCCOCCOCCOCCNC(=O)CCc1ccc2n1[B-](F)(F)[N+]1=C(c3ccc[nH]3)C=CC1=C2 [Amitriptyline-e-2-NB590]
NanoBRET Fold Response (CCKBR; tracer at 1μM): 1.02
NanoBRET Fold Response (CCR1; tracer at 1μM): 0.99

NanoBRET Fold Response (CCKBR; 0.1μM tracer): 1.01
NanoBRET Fold Response (CCKBR; 1μM tracer): 1.02
NanoBRET Fold Response (CCR1; 0.1μM tracer): 0.90
NanoBRET Fold Response (CCR1; 1μM tracer): 1.04
SMILES: COc1ccc2c(n1)c(CCNC(C)=O)cn2CCNC(=O)CCc1ccc2n1[B-](F)(F)[N+]1=C(c3ccc[nH]3)C=CC1=C2 [Azamelatonin-1-NB590]

NanoBRET Fold Response (CCKBR; 0.1μM tracer): 1.13
NanoBRET Fold Response (CCKBR; 1μM tracer): 1.16
NanoBRET Fold Response (CCR1; 0.1μM tracer): 1.12
NanoBRET Fold Response (CCR1; 1μM tracer): 1.21
SMILES: COc1ccc2[nH]c(-c3ccc(CNC(=O)CCOCCOCCOCCOCCNC(=O)CCc4ccc5n4[B-](F)(F)[N+]4=C(c6ccc[nH]6)C=CC4=C5)cc3)c(CCNC(C)=O)c2n1 [AzomelatoninICO9-2-NB590]

NanoBRET Fold Response (CCKBR; CCKBR, 0.1μM tracer): 1.01
NanoBRET Fold Response (CCKBR; CCKBR, 1μM tracer): 1.01
NanoBRET Fold Response (CCR1; CCR1, 0.1μM tracer): 1.03
NanoBRET Fold Response (CCR1; CCR1, 1μM tracer): 0.94
SMILES: O=C(CCOCCOCCOCCOCCNC(=O)CCc1ccc2n1[B-](F)(F)[N+]1=C(c3ccc[nH]3)C=CC1=C2)NCCCN1CCN(C2=Nc3cc(Cl)ccc3Nc3ccccc32)CC1 [Clozapine-a-2-NB590]
